Experimental data: ChEMBL document CHEMBL1201862, “PubChem BioAssay data set” (2004)
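Five concentrations, 48 hours, 96-well plates. GI50 = concentration required for 50% inhibition of growth.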 Active and inactive are the calls of the source. Cut-off read from the data, not from the text of the source: active = GI50 up to about 1.1 µM and inactive = higher.

How the values were obtained:
Test in all cases: NCI anticancer screen, dose series, 48 h
NCI-H522 = test system: NCI-H522
SF-539 = test system: SF-539
HCT-15 = test system: HCT-15
HCT-116 = test system: HCT-116
786-0 = test system: 786-0
T47D = test system: T47D
SNB-19 = test system: SNB-19
HOP-62 = test system: HOP-62
U-251 = test system: U-251
HOP-92 = test system: HOP-92
OVCAR-4 = test system: OVCAR-4
PC-3 = test system: PC-3
NCI-H460 = test system: NCI-H460
MDA-MB-435 = test system: MDA-MB-435
SK-MEL-2 = test system: SK-MEL-2
RPMI-8226 = test system: RPMI-8226
UACC-257 = test system: UACC-257
NCI/ADR-RES = test system: NCI/ADR-RES
HL-60 = test system: HL-60
SF-268 = test system: SF-268
K562 = test system: K562
CCRF-CEM = test system: CCRF-CEM
TK-10 = test system: TK-10
HT-29 = test system: HT-29
LOX IMVI = test system: LOX IMVI
SR = test system: SR
SW-620 = test system: SW-620
CAKI-1 = test system: CAKI-1
COLO 205 = test system: COLO 205
MDA-N = test system: MDA-N
SN12C = test system: SN12C
EKVX = test system: EKVX
A498 = test system: A498
MDA-MB-231 = test system: MDA-MB-231
IGROV-1 = test system: IGROV-1
MCF7 = test system: MCF7
Hs-578T = test system: Hs-578T
UACC-62 = test system: UACC-62
NCI-H226 = test system: NCI-H226
SK-MEL-5 = test system: SK-MEL-5
UO-31 = test system: UO-31
OVCAR-3 = test system: OVCAR-3
KM12 = test system: KM12
SK-OV-3 = test system: SK-OV-3
ACHN = test system: ACHN
A549 = test system: A549
SNB-75 = test system: SNB-75
SF-295 = test system: SF-295
MOLT-4 = test system: MOLT-4
OVCAR-8 = test system: OVCAR-8
DU-145 = test system: DU-145
NCI-H23 = test system: NCI-H23
Malme-3M = test system: Malme-3M
SK-MEL-28 = test system: SK-MEL-28
OVCAR-5 = test system: OVCAR-5
M14 = test system: M14

Measured: GI50

COc1cc([C@@H]2c3cc4c(cc3[C@@H](NC(=O)NO)[C@H]3COC(=O)[C@H]23)OCO4)cc(OC)c1O
inactive: NCI-H522 > 100000 nM | SF-539 3600 nM | HCT-116 4840 nM | 786-0 4980 nM | T47D > 100000 nM | SNB-19 > 100000 nM | HOP-62 5370 nM | U-251 6900 nM | HOP-92 > 100000 nM | OVCAR-4 > 100000 nM | PC-3 4910 nM | NCI-H460 4420 nM | MDA-MB-435 2290 nM | SK-MEL-2 4380 nM | RPMI-8226 4030 nM | UACC-257 > 100000 nM | NCI/ADR-RES 12700 nM | HL-60 3720 nM | SF-268 61500 nM | K562 3100 nM | CCRF-CEM 12700 nM | TK-10 > 100000 nM | HT-29 5190 nM | LOX IMVI 4580 nM | SR 9120 nM | SW-620 6190 nM | CAKI-1 6310 nM | COLO 205 5300 nM | MDA-N 2150 nM | SN12C 4710 nM | EKVX 7450 nM | A498 14000 nM | MDA-MB-231 4420 nM | IGROV-1 3250 nM
3800 nM: HCT-15

C/C1=C\[C@H](C)C[C@H](C)OC(=O)C[C@H](c2ccc(O)cc2)NC(=O)[C@H](Cc2ccc(O)c(I)c2)N(C)C(=O)[C@H](C)NC(=O)[C@@H](C)C1
234 nM: HCT-15
active: NCI-H522 81.8 nM | HCT-116 16 nM | 786-0 14.8 nM | MCF7 19 nM | Hs-578T 56.4 nM | UACC-62 42.8 nM | NCI-H226 15.3 nM | SNB-19 14.3 nM | SK-MEL-5 16.9 nM | HOP-62 25.2 nM | UO-31 53.5 nM | OVCAR-3 20.3 nM | KM12 208 nM | U-251 9.44 nM | SK-OV-3 54 nM | HOP-92 36.5 nM | OVCAR-4 6.53 nM | PC-3 60.8 nM | ACHN 8.32 nM | A549 10.2 nM | SNB-75 35.4 nM | SF-295 77.8 nM | MDA-MB-435 44.2 nM | MOLT-4 258 nM | SK-MEL-2 64.6 nM | RPMI-8226 10.8 nM | OVCAR-8 13.7 nM | DU-145 18.3 nM | NCI/ADR-RES 1110 nM | SF-268 11 nM | Malme-3M 11.8 nM | CCRF-CEM 4.97 nM | TK-10 58.6 nM | SK-MEL-28 11.2 nM | OVCAR-5 131 nM | HT-29 2.74 nM | LOX IMVI 4.11 nM | SR 96.8 nM | SW-620 8.63 nM | COLO 205 16.1 nM | MDA-N 41.2 nM | SN12C 239 nM | EKVX 59.6 nM | A498 16 nM | MDA-MB-231 33.3 nM | IGROV-1 12.1 nM | M14 40.5 nM
inactive: NCI-H23 2790 nM | K562 1310 nM

O=C1c2c(O)ccc(O)c2C(=O)c2c(NCCNCCO)ccc(NCCNCCO)c21 [MITOXANTRONE]
active: SF-539 < 10 nM | HCT-116 37.3 nM | SK-MEL-5 71.9 nM | HOP-92 35.5 nM | A549 < 10 nM | MDA-MB-435 259 nM | UACC-257 995 nM | K562 74.1 nM | A498 112 nM
